Reference: PubChem BioAssay (NCI)
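Tested at 5 concentrations; 48 h exposure; 96-well plates; endpoints linearly interpolated, else capped at highest concentration. Abbreviation: GI50, concentration required for 50% inhibition of growth. TGI: total growth inhibition.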

What was measured:
Experiment in all cases: growth of human tumour cells (NCI), 48 h; in the data active = GI50 below about 0.43 µM; inactive = the rest
HT29 colon = tested on: HT29 colon
SF-295 CNS = tested on: SF-295 CNS
CAKI-1 renal = tested on: CAKI-1 renal
RPMI-8226 leukemia = tested on: RPMI-8226 leukemia
U251 CNS = tested on: U251 CNS
SK-MEL-2 melanoma = tested on: SK-MEL-2 melanoma
T-47D breast = tested on: T-47D breast
NCI-H522 lung = tested on: NCI-H522 lung
HCC-2998 colon = tested on: HCC-2998 colon
CCRF-CEM leukemia = tested on: CCRF-CEM leukemia
A498 renal = tested on: A498 renal
OVCAR-3 ovarian = tested on: OVCAR-3 ovarian
NCI/ADR-RES ovarian = tested on: NCI/ADR-RES ovarian
RXF 393 renal = tested on: RXF 393 renal
SW-620 colon = tested on: SW-620 colon
NCI-H23 lung = tested on: NCI-H23 lung
NCI-H460 lung = tested on: NCI-H460 lung
SF-539 CNS = tested on: SF-539 CNS
BT-549 breast = tested on: BT-549 breast
SN12C renal = tested on: SN12C renal
HOP-92 NSCLC = tested on: HOP-92 NSCLC
KM12 colon = tested on: KM12 colon
EKVX NSCLC = tested on: EKVX NSCLC
HS 578T breast = tested on: HS 578T breast
DU-145 prostate = tested on: DU-145 prostate
SNB-75 CNS = tested on: SNB-75 CNS
UACC-62 melanoma = tested on: UACC-62 melanoma
786-0 renal = tested on: 786-0 renal
MDA-MB-231 breast = tested on: MDA-MB-231 breast
A549 NSCLC = tested on: A549 NSCLC
NCI-H226 lung = tested on: NCI-H226 lung
IGROV1 ovarian = tested on: IGROV1 ovarian
K-562 leukemia = tested on: K-562 leukemia
LOX IMVI melanoma = tested on: LOX IMVI melanoma
M14 melanoma = tested on: M14 melanoma
MCF7 breast = tested on: MCF7 breast
HCT-116 colon = tested on: HCT-116 colon
SK-OV-3 ovarian = tested on: SK-OV-3 ovarian
SK-MEL-5 melanoma = tested on: SK-MEL-5 melanoma
MALME-3M melanoma = tested on: MALME-3M melanoma
OVCAR-4 ovarian = tested on: OVCAR-4 ovarian
UACC-257 melanoma = tested on: UACC-257 melanoma
UO-31 renal = tested on: UO-31 renal
SF-268 CNS = tested on: SF-268 CNS
OVCAR-8 ovarian = tested on: OVCAR-8 ovarian
MDA-MB-468 breast = tested on: MDA-MB-468 breast
SK-MEL-28 melanoma = tested on: SK-MEL-28 melanoma
COLO 205 colon = tested on: COLO 205 colon
PC-3 prostate = tested on: PC-3 prostate
OVCAR-5 ovarian = tested on: OVCAR-5 ovarian
HOP-62 NSCLC = tested on: HOP-62 NSCLC
SNB-19 CNS = tested on: SNB-19 CNS
ACHN renal = tested on: ACHN renal
TK-10 renal = tested on: TK-10 renal
MOLT-4 leukemia = tested on: MOLT-4 leukemia
HL-60(TB) leukemia = tested on: HL-60(TB) leukemia
MDA-MB-435 = tested on: MDA-MB-435
HCT-15 colon = tested on: HCT-15 colon

CC(C)c1sc(NC(=O)c2cc(NC(=O)c3cc(NC(=O)c4cscn4)cn3C)cn2C)nc1C(=O)NCCCN(C)C
4.51 µM: TGI (SF-539 CNS)
19.6 µM: TGI (HOP-62 NSCLC)
21 µM: TGI (OVCAR-5 ovarian)
7.88 µM: TGI (SK-MEL-2 melanoma)
16.3 µM: TGI (SW-620 colon) | TGI (SK-OV-3 ovarian)
10.4 µM: TGI (NCI-H23 lung) | TGI (MCF7 breast)
5.58 µM: TGI (NCI-H522 lung)
11.1 µM: TGI (SK-MEL-5 melanoma)
8.26 µM: TGI (MALME-3M melanoma)
6.99 µM: TGI (RXF 393 renal)
11.7 µM: TGI (SNB-75 CNS)
14.2 µM: TGI (M14 melanoma)
16.8 µM: TGI (UACC-257 melanoma)
5.68 µM: TGI (COLO 205 colon)
12.5 µM: TGI (T-47D breast)
22 µM: TGI (NCI-H460 lung)
inactive: GI50 (HT29 colon) 5.35 µM | GI50 (SF-295 CNS) 9.83 µM | GI50 (CAKI-1 renal) 17.5 µM | GI50 (RPMI-8226 leukemia) 28.1 µM | GI50 (U251 CNS) 1.14 µM | GI50 (SK-MEL-2 melanoma) 3.75 µM | GI50 (T-47D breast) 1.07 µM | GI50 (NCI-H522 lung) 1.08 µM | GI50 (HCC-2998 colon) 3.86 µM | GI50 (CCRF-CEM leukemia) 2.14 µM | GI50 (A498 renal) > 28.3 µM | GI50 (OVCAR-3 ovarian) 2.03 µM | GI50 (NCI/ADR-RES ovarian) > 28.3 µM | GI50 (RXF 393 renal) 1.84 µM | GI50 (SW-620 colon) 4.21 µM | GI50 (NCI-H23 lung) 4.51 µM | GI50 (NCI-H460 lung) 7.6 µM | GI50 (SF-539 CNS) 1.08 µM | GI50 (BT-549 breast) 0.994 µM | GI50 (SN12C renal) 5.89 µM | GI50 (HOP-92 NSCLC) 0.846 µM | GI50 (KM12 colon) 11.3 µM | GI50 (EKVX NSCLC) 5.84 µM | GI50 (HS 578T breast) 4.55 µM | GI50 (DU-145 prostate) 5.49 µM | GI50 (SNB-75 CNS) 0.829 µM | GI50 (UACC-62 melanoma) 3.57 µM | GI50 (786-0 renal) 6.16 µM | GI50 (MDA-MB-231 breast) 5.63 µM | GI50 (A549 NSCLC) 9.72 µM | GI50 (NCI-H226 lung) 3.22 µM | GI50 (IGROV1 ovarian) 4.48 µM | GI50 (K-562 leukemia) 1.85 µM | GI50 (LOX IMVI melanoma) 0.739 µM | GI50 (M14 melanoma) 5.25 µM | GI50 (MCF7 breast) 3.58 µM | GI50 (HCT-116 colon) 2.29 µM | GI50 (SK-OV-3 ovarian) 1.37 µM | GI50 (SK-MEL-5 melanoma) 5.35 µM | GI50 (MALME-3M melanoma) 3.78 µM | GI50 (OVCAR-4 ovarian) 5.34 µM | GI50 (UACC-257 melanoma) 5.78 µM | GI50 (UO-31 renal) > 28.3 µM | GI50 (SF-268 CNS) 2.63 µM | GI50 (OVCAR-8 ovarian) 7.86 µM | GI50 (MDA-MB-468 breast) 1.03 µM | GI50 (SK-MEL-28 melanoma) 3.17 µM | GI50 (COLO 205 colon) 1.86 µM | GI50 (PC-3 prostate) 1.25 µM | GI50 (OVCAR-5 ovarian) 6.29 µM | GI50 (HOP-62 NSCLC) 6.43 µM | GI50 (SNB-19 CNS) 0.838 µM | GI50 (ACHN renal) > 28.3 µM | GI50 (TK-10 renal) > 28.3 µM | GI50 (MOLT-4 leukemia) 9.35 µM | GI50 (HL-60(TB) leukemia) 6.12 µM | GI50 (MDA-MB-435) 3.86 µM | GI50 (HCT-15 colon) > 28.3 µM
19.8 µM: TGI (MDA-MB-435)
15.5 µM: TGI (786-0 renal)
8.44 µM: TGI (HCT-116 colon)
18.8 µM: TGI (HL-60(TB) leukemia)
2.21 µM: TGI (LOX IMVI melanoma)
21.8 µM: TGI (MDA-MB-231 breast)
4.68 µM: TGI (MDA-MB-468 breast)
7.92 µM: TGI (HCC-2998 colon)
> 28.3 µM: TGI (SF-295 CNS) | TGI (CAKI-1 renal) | TGI (RPMI-8226 leukemia) | TGI (U251 CNS) | TGI (CCRF-CEM leukemia) | TGI (A498 renal) | TGI (OVCAR-3 ovarian) | TGI (NCI/ADR-RES ovarian) | TGI (SN12C renal) | TGI (KM12 colon) | TGI (EKVX NSCLC) | TGI (DU-145 prostate) | TGI (A549 NSCLC) | TGI (NCI-H226 lung) | TGI (K-562 leukemia) | TGI (OVCAR-4 ovarian) | TGI (UO-31 renal) | TGI (SF-268 CNS) | TGI (SNB-19 CNS) | TGI (ACHN renal) | TGI (TK-10 renal) | TGI (MOLT-4 leukemia) | TGI (HCT-15 colon)
7.22 µM: TGI (UACC-62 melanoma)
11.9 µM: TGI (SK-MEL-28 melanoma)
12.3 µM: TGI (IGROV1 ovarian)
10.9 µM: TGI (HT29 colon)
26 µM: TGI (OVCAR-8 ovarian)
9.01 µM: TGI (HOP-92 NSCLC)
24.8 µM: TGI (PC-3 prostate)
26.4 µM: TGI (HS 578T breast)
4.45 µM: TGI (BT-549 breast)
